Reference: ChEMBL document CHEMBL3875216, “Synthesis of antimicrobial glucosamides as bacterial quorum sensing mechanism inhibitors” (Bioorg Med Chem, 2017)

What was measured:
[1] = system: Escherichia coli; assay: Inhibition of LuxR-dependent quorum sensing activity in Escherichia coli MT102 harboring pJBA132 assessed as inhibition of OHHL-induced GFP expression at 2 mM measured after 8 hrs by fluorescence assay relative to control
[2] = system: Escherichia coli; assay: Inhibition of LuxR-dependent quorum sensing activity in Escherichia coli MT102 harboring pJBA132 assessed as inhibition of OHHL-induced GFP expression at 1 mM measured after 24 hrs by fluorescence assay relative to control
[3] = system: Pseudomonas aeruginosa; assay: Inhibition of LasR-dependent quorum sensing activity in Pseudomonas aeruginosa MH602 harboring GFP-fused […] LasB promoter assessed as inhibition of 3-oxo-dodecanoyl HSL-induced GFP expression at 1 mM measured after 24 hrs by fluorescence assay relative to control
[4] = system: Pseudomonas aeruginosa; assay: Growth inhibition of Pseudomonas aeruginosa PA14 at 2 mM after 24 hrs relative to control; conditions: 2000 µM
[5] = system: Pseudomonas aeruginosa; assay: Growth inhibition of Pseudomonas aeruginosa MH602 at 500 uM after 24 hrs relative to control; conditions: MH602, 24 h, read-out: GI
[6] = system: Pseudomonas aeruginosa; assay: Growth inhibition of Pseudomonas aeruginosa MH602 at 500 uM after 8 hrs relative to control; conditions: MH602, 8 h, read-out: GI
[7] = system: Pseudomonas aeruginosa; assay: Growth inhibition of Pseudomonas aeruginosa MH602 at 2 mM after 8 hrs relative to control; conditions: MH602, 8 h, read-out: GI
[8] = system: Escherichia coli; assay: Inhibition of LuxR-dependent quorum sensing activity in Escherichia coli MT102 harboring pJBA132 assessed as inhibition of OHHL-induced GFP expression at 1 mM measured after 8 hrs by fluorescence assay relative to control
[9] = system: Pseudomonas aeruginosa; assay: Inhibition of LasR-dependent quorum sensing activity in Pseudomonas aeruginosa MH602 harboring GFP-fused […] LasB promoter assessed as inhibition of 3-oxo-dodecanoyl HSL-induced GFP expression at 500 uM measured after 24 hrs by fluorescence assay relative to control
[10] = system: Pseudomonas aeruginosa; assay: Growth inhibition of Pseudomonas aeruginosa MH602 at 1 mM after 8 hrs relative to control; conditions: MH602, 8 h, read-out: GI
[11] = system: Escherichia coli; assay: Growth inhibition of Escherichia coli MT102 at 2 mM after 8 hrs relative to control; conditions: MT102, 8 h, read-out: GI
[12] = system: Escherichia coli; assay: Growth inhibition of Escherichia coli MT102 at 500 uM after 24 hrs relative to control; conditions: MT102, 24 h, read-out: GI
[13] = system: Escherichia coli; assay: Growth inhibition of Escherichia coli MT102 at 1 mM after 8 hrs relative to control; conditions: MT102, 8 h, read-out: GI
[14] = system: Pseudomonas aeruginosa PA14; assay: Inhibition of quorum sensing-regulated biofilm formation in Pseudomonas aeruginosa PA14 at 2 mM after overnight incubation by crystal violet staining based assay relative to control
[15] = system: Escherichia coli; assay: Growth inhibition of Escherichia coli MT102 at 1 mM after 24 hrs relative to control; conditions: MT102, 24 h, read-out: GI
[16] = system: Pseudomonas aeruginosa; assay: Inhibition of LasR-dependent quorum sensing activity in Pseudomonas aeruginosa MH602 harboring GFP-fused […] LasB promoter assessed as inhibition of 3-oxo-dodecanoyl HSL-induced GFP expression at 2 mM measured after 24 hrs by fluorescence assay relative to control
[17] = system: Escherichia coli; assay: Growth inhibition of Escherichia coli MT102 at 2 mM after 24 hrs relative to control; conditions: MT102, 24 h, read-out: GI
[18] = system: Pseudomonas aeruginosa; assay: Inhibition of LasR-dependent quorum sensing activity in Pseudomonas aeruginosa MH602 harboring GFP-fused […] LasB promoter assessed as inhibition of 3-oxo-dodecanoyl HSL-induced GFP expression at 500 uM measured after 8 hrs by fluorescence assay relative to control
[19] = system: Escherichia coli; assay: Inhibition of LuxR-dependent quorum sensing activity in Escherichia coli MT102 harboring pJBA132 assessed as inhibition of OHHL-induced GFP expression at 500 uM measured after 24 hrs by fluorescence assay relative to control
[20] = system: Pseudomonas aeruginosa; assay: Growth inhibition of Pseudomonas aeruginosa MH602 at 2 mM after 24 hrs relative to control; conditions: MH602, 24 h, read-out: GI
[21] = system: Pseudomonas aeruginosa PA14; assay: Inhibition of quorum sensing-regulated pyocyanin production in Pseudomonas aeruginosa PA14 at 2 mM after 24 hrs relative to control
[22] = system: Escherichia coli; assay: Growth inhibition of Escherichia coli MT102 at 500 uM after 8 hrs relative to control; conditions: MT102, 8 h, read-out: GI
[23] = system: Escherichia coli; assay: Inhibition of LuxR-dependent quorum sensing activity in Escherichia coli MT102 harboring pJBA132 assessed as inhibition of OHHL-induced GFP expression at 500 uM measured after 8 hrs by fluorescence assay relative to control
[24] = system: Pseudomonas aeruginosa; assay: Growth inhibition of Pseudomonas aeruginosa MH602 at 1 mM after 24 hrs relative to control; conditions: MH602, 24 h, read-out: GI
[25] = system: Escherichia coli; assay: Inhibition of LuxR-dependent quorum sensing activity in Escherichia coli MT102 harboring pJBA132 assessed as inhibition of OHHL-induced GFP expression at 2 mM measured after 24 hrs by fluorescence assay relative to control
[26] = system: Pseudomonas aeruginosa; assay: Inhibition of LasR-dependent quorum sensing activity in Pseudomonas aeruginosa MH602 harboring GFP-fused […] LasB promoter assessed as inhibition of 3-oxo-dodecanoyl HSL-induced GFP expression at 1 mM measured after 8 hrs by fluorescence assay relative to control
[27] = system: Pseudomonas aeruginosa; assay: Inhibition of LasR-dependent quorum sensing activity in Pseudomonas aeruginosa MH602 harboring GFP-fused […] LasB promoter assessed as inhibition of 3-oxo-dodecanoyl HSL-induced GFP expression at 2 mM measured after 8 hrs by fluorescence assay relative to control

Compound	inhibition [1] [%]	growth inhibition (GI) [4]	inhibition at 500 µM [5] [%]	inhibition at 500 µM [6] [%]	inhibition at 2000 µM [7] [%]	inhibition [8] [%]	inhibition [9] [%]	inhibition at 1000 µM [10] [%]	inhibition at 2000 µM [11] [%]	inhibition at 500 µM [12] [%]	inhibition at 1000 µM [13] [%]	inhibition [14] [%]	inhibition at 1000 µM [15] [%]	inhibition [16] [%]	inhibition at 2000 µM [17] [%]	inhibition [18] [%]	inhibition at 2000 µM [20] [%]	inhibition [21] [%]	inhibition at 500 µM [22] [%]	inhibition [23] [%]	further results
CC(=O)OC[C@H]1O[C@@H](OC(C)=O)[C@H](NC(=O)Cc2ccc(Cl)cc2)[C@@H](OC(C)=O)[C@@H]1OC(C)=O	3.7	Non-Toxic	3.4	0	0	4.2	13.3	0	0	0	0	17.8	0	16.7	0	1.4	0	9.3	0	5.2	inhibition [2]: 8.5%; inhibition [3]: 14.8%; inhibition [19]: 1.3%; inhibition at 1000 µM [24]: 0%; inhibition [25]: 16.5%
O=C(Cc1ccc(C(F)(F)F)cc1)N[C@@H]1[C@@H](O)[C@H](O)[C@@H](CO)O[C@H]1O	12.8	Non-Toxic	4.4	0	0	10.1	10.6	0	0	1.2	0	17.8	0	10.6	2.5	2.4	5.8	6.6	0	11.4	inhibition [26]: 7.1%; inhibition [3]: 10.3%; inhibition [27]: 3.3%; inhibition at 1000 µM [24]: 7.8%
CCCC(=O)N[C@@H]1[C@@H](O)[C@H](O)[C@@H](CO)O[C@H]1O	98.4	Non-Toxic	5.9	8.9	29.8	92.7	10.7	0	83.6	13.5	34.5	22.4	13.9	13.4	10.7	13.5	4.4	10.6	37.9	51.7	inhibition [2]: 93.5%; inhibition [26]: 22.5%; inhibition [27]: 79.1%; inhibition [19]: 46.5%; inhibition at 1000 µM [24]: 0%; inhibition [25]: 97.5%
CCCC(=O)N[C@H]1[C@H](OC(C)=O)O[C@H](COC(C)=O)[C@@H](OC(C)=O)[C@@H]1OC(C)=O	6.1	Non-Toxic	0	3.4	0	21.9	2.5	0.9	0	3	0	7.8	5	22.2	0	3.6	0	1.5	9.4	10.1	inhibition [2]: 4.4%; inhibition [26]: 11%; inhibition [27]: 10.8%; inhibition [19]: 2.1%; inhibition at 1000 µM [24]: 0%; inhibition [25]: 23.4%
